Data set [1] is described as follows: Clearance in Balbc mouse at 5 mg/kg, iv by LC-MS/MS analysis. It is filed as ADME, organism-based. To be noted: BALB/c, in vivo.
A short description of data set [2]: Terminal half life in Balbc mouse at 5 mg/kg, iv by LC-MS/MS analysis. To be noted: BALB/c, in vivo, read-out: beta t1/2 (converted). The format is ADME, organism-based.
The nature of data set [3]: AUC (0 to infinity) in Balbc mouse at 5 mg/kg, iv by LC-MS/MS analysis. Set-up: dose 5 mg/kg, time infinity, route intravenous. To be noted: BALB/c, in vivo. It is filed as ADME, organism-based.
Data set [4] has as its system K562. In words: Antiproliferative activity against human K562 cells after 72 hrs by alamar blue assay. Particulars: K562, 72 h. The format is functional, cell-based. In general terms: Alamar Blue is a resazurin reagent that responds to reducing activity.
Data set [5] deals with MDA-MB-231. The data set is described as follows: Antiproliferative activity against human MDA-MB-231 cells after 72 hrs by alamar blue assay. It is filed as functional, cell-based. To be noted: MDA-MB-231, 72 h.

pIC50: −log10 of the molar value.

By clearance is commonly meant the rate of elimination divided by the concentration. A higher clearance goes with efficient removal. By AUC(0-inf) is commonly meant total exposure, with the tail of the curve extrapolated. By pIC50 is commonly meant the IC50 on a negative log10 scale, so that one unit is a factor of ten. Lower therefore signals a high IC50.

For `CCOc1ccc(-c2nnc(SCC(=O)Nc3cc(C)cc(C)c3)[nH]2)cc1F`, the clearance in data set [1] was 129 mL/min/kg. Also, the half-life in data set [2] is 9 min. Also, in data set [3], the total exposure AUC(0-inf) is 1290 ng·h/mL.

For `COc1ccc(-c2nnc(SCC(=O)Nc3ccc(F)cc3F)[nH]2)cc1`, the figures for the pIC50 in data set [4] and in data set [5] were 4.43 and 4.10, respectively.

The values above are taken from ChEMBL document CHEMBL3727353, “Small-molecule choline kinase inhibitors as anti-cancer therapeutics” (2011).
